Test results from ChEMBL document CHEMBL1201862, “PubChem BioAssay data set” (2004).
Active and inactive are the calls of the source.

Tests used:
Coagulation factor XII = Coagulation factor XII (Homo sapiens, UniProt P00748); assay type: functional;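 further: activated factor XIIa alpha cleaving a fluorogenic AMC peptide substrate; inhibitor potency from loss of enzyme activity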
Streptokinase A = target: T1, Streptokinase A (Streptococcus pyogenes serotype M1, UniProt P10520); experiment: S. pyogenes streptokinase expression inhibitors, potency, dose response, plasminogen activation absorbance, OD405 (AID 1914); assay type: functional, Streptococcus pyogenes M1 GAS;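 further: secreted streptokinase activity via plasminogen activation per viability signal from cell pellet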
T1 sequence (P10520 whole entry): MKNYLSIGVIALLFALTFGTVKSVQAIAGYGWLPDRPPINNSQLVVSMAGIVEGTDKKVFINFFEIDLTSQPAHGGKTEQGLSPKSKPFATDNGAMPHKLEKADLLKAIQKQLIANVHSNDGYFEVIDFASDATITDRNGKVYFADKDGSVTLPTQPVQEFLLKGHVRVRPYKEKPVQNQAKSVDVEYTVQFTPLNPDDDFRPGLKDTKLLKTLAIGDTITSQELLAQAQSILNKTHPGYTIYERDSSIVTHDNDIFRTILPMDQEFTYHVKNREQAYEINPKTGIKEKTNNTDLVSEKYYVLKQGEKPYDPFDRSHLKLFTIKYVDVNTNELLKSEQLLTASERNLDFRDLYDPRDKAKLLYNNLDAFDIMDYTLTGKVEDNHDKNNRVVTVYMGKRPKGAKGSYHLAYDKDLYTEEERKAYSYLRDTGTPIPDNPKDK

Streptococcus = experiment: Group A Streptococcus viability loss, dose response, counter-screen for streptokinase expression inhibitor project, luminescence, BacTiterGlo (AID 1915); assay type: functional, organism-based;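 further: potency for reduction of bacterial viability or growth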
[1] = tested on: Streptococcus sp. 'group A'; experiment: growth inhibition of control SK(-) GAS strain, dose response, counter-screen for streptokinase expression inhibitor project, luminescence, kanamycin, BacTiterGlo, confirmation (AID 1900); assay type: functional, organism-based
[2] = target: T2, Alkaline phosphatase, tissue-nonspecific isozyme (Homo sapiens, UniProt P05186); experiment: human TNAP enzyme inhibitors, SAR follow-up, biochemical, luminescent, dose response (AID 1056)
T2 sequence (P05186 whole entry): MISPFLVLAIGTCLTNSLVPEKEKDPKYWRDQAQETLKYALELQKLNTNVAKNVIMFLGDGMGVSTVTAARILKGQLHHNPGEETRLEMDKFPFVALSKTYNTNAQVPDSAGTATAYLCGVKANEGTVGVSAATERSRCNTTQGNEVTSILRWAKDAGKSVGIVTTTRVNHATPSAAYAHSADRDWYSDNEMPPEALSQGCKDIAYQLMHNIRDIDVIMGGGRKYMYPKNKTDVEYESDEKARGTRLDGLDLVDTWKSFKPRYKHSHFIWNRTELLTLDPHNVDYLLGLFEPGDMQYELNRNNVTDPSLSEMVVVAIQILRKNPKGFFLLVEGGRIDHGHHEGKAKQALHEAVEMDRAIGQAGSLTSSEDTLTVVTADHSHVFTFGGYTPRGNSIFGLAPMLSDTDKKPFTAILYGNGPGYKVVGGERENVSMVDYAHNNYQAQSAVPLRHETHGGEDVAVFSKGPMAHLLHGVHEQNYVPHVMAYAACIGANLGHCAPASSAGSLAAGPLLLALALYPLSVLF

[3] = target: Alkaline phosphatase, placental type (Homo sapiens, UniProt P05187); experiment: PLAP enzyme inhibitors, confirmation, biochemical, luminescence (AID 1512); assay type: functional
Sequence of Alkaline phosphatase, placental type (P05187 whole entry): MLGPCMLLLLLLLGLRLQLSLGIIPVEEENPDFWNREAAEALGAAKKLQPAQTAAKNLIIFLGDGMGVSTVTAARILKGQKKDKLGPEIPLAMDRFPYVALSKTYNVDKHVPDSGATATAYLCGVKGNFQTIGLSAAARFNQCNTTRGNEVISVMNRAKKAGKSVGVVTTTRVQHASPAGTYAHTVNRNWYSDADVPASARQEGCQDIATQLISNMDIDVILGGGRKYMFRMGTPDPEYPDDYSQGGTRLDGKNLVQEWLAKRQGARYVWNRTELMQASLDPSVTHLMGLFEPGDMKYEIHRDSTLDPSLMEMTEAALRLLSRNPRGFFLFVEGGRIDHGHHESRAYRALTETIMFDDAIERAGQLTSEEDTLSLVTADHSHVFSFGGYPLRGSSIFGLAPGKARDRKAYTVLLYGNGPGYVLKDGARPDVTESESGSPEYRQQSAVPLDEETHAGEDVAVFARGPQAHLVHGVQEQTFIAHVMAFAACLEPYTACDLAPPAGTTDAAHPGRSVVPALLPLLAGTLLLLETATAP

Phosphomannomutase 2 = target: T3, Phosphomannomutase 2 (Homo sapiens, UniProt O15305); experiment: Counter screen SAR assay for PMM2 inhibitors via a fluorescence intensity assay. [Related pubchem assays (depositor defined):AID1545, AID1574]
T3 sequence (O15305 whole entry): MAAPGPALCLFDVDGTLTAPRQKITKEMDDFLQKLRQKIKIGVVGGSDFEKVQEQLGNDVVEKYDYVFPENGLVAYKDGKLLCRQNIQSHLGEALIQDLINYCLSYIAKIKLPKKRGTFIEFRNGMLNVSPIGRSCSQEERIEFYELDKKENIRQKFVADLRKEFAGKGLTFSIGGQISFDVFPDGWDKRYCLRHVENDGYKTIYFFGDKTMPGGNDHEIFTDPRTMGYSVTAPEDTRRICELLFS

[4] = HeLa cell cytotoxicity, dose response, cytotoxicity control for MgcRacGAP inhibitor project (AID 624300); assay type: functional
[5] = target: Glucose-6-phosphate 1-dehydrogenase (Homo sapiens, UniProt P11413); experiment: human G6PD enzyme inhibitors, dose response, selectivity assay for P. falciparum G6PD inhibitor project, biochemical, fluorescence (AID 504792); assay type: functional
Sequence of Glucose-6-phosphate 1-dehydrogenase (P11413 whole entry): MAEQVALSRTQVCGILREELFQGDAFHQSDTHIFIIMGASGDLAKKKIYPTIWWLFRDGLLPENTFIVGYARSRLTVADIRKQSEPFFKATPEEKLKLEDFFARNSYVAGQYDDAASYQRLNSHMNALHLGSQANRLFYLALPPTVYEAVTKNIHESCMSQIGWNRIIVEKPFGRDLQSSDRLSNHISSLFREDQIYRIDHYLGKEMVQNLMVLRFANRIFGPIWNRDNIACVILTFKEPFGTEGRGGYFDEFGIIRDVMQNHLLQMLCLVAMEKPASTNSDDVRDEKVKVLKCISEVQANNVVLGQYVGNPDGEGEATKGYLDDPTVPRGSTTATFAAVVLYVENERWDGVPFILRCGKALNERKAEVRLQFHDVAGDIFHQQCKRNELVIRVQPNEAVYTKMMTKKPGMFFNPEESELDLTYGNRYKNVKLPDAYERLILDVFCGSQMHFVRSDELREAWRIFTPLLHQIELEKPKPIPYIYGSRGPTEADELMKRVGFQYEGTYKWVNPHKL

[6] = target: T4, Rac GTPase-activating protein 1 (Homo sapiens, UniProt Q9H0H5); experiment: MgcRacGAP GTPase-activating activity inhibitors, confirmation, biochemical, ADP Hunter fluorescence, primary and confirmatory (AID 624330); assay type: functional
T4 sequence (Q9H0H5 whole entry): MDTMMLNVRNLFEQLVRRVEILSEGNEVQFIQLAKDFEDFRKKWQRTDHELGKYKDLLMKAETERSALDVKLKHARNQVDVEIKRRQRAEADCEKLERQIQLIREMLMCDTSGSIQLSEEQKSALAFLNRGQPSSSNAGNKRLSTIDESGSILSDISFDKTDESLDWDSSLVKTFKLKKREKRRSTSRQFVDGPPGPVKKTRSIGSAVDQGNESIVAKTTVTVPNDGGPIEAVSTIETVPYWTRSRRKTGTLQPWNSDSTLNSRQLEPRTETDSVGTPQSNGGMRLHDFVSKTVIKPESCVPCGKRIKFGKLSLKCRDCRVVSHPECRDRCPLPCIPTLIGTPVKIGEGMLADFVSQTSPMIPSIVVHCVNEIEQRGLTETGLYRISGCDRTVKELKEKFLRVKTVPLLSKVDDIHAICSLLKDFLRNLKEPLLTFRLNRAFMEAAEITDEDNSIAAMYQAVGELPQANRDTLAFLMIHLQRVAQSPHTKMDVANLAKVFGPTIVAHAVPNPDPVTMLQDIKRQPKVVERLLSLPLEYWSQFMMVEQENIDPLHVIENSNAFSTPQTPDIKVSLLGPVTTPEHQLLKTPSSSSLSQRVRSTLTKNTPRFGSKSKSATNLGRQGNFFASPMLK

Hexokinase = Hexokinase (Trypanosoma brucei, UniProt Q38C41); experiment: Confirmation assay for inhibitors of Trypanosoma brucei hexokinase 1-Analogue-first series. [Related pubchem assays (depositor defined):AID1430, AID1632, AID2516, AID2560, AID2579, AID2600, AID449725, AID492951]; assay type: functional
Sequence of Hexokinase (Q38C41 whole entry): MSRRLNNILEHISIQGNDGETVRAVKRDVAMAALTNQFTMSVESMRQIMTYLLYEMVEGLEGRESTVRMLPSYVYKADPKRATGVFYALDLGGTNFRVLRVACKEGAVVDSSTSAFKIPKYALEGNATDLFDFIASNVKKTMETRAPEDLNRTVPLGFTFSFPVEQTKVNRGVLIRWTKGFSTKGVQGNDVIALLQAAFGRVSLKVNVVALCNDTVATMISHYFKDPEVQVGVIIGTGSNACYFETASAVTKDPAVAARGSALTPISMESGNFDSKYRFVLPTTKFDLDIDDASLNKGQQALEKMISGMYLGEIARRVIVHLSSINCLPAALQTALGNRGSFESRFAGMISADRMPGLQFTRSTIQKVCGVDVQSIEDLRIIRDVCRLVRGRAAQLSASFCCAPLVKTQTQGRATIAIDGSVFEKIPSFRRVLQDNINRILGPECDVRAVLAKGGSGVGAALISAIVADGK

Sequence of Coagulation factor XII (P00748 20-372 limits assumed): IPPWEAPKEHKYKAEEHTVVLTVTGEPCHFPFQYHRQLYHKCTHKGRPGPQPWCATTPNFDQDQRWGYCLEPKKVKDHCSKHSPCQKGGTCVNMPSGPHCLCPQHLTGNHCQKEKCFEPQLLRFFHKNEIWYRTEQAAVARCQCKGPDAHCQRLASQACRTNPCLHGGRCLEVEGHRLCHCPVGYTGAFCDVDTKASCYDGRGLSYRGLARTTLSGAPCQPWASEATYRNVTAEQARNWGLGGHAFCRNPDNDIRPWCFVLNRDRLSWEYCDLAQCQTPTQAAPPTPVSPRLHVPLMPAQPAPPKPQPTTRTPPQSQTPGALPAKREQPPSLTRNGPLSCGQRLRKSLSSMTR
Sequence of Coagulation factor XII (P00748 373-615 limits assumed): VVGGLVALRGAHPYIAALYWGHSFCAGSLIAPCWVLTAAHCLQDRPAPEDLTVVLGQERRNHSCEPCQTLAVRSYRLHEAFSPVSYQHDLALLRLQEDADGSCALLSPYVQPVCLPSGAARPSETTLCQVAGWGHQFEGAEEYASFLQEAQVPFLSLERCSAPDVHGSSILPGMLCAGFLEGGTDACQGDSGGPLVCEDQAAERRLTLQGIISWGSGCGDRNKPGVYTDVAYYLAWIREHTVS

## COc1cccc(NC(C(=O)Nc2cccc(C(C)=O)c2)c2ccccc2)c1 (configuration not stated)
Coagulation factor XII
  IC50: > 50 µM (inactive)

## O=C(Nc1ncc(Cc2ccccc2)s1)c1cccs1
Coagulation factor XII
  IC50: > 50 µM (inactive)
Streptokinase A
  EC50: > 150 µM (not active)
Streptococcus
  EC50: > 150 µM (not active)
[1]
  EC50: 15.6 µM (active)

## Oc1ccc(C2=Nn3c(nnc3-c3ccccc3Cl)SC2)cc1O
[2]
  IC50: 4.02 µM (active)
[3]
  IC50: 15 µM (active)

## O=c1c2ccccc2sn1-c1ccc(Cl)cc1
Phosphomannomutase 2
  IC50: 35.6 µM (active)
[4]
  CC50: 100 µM (active)
[5]
  IC50: 10.5 µM (active)
[6]
  IC50: 34.7 µM (active)
Hexokinase
  IC50: 1.1 µM (active)
